The text below walks through data of patent US20210317092A1 (BAYER PHARMA AKTIENGESELLSCHAFT, priority 2016, published 2021).

Each structure is given as a SMILES string. pIC50: −log10 of the molar value. Some results are limits rather than exact numbers.

Data set [1] relates to IL-6 secretion. The data set is described as follows: Inhibitory activity on Bradykinin B1 agonist-induced secretion of IL-6 in human IMR-90 cells. Type of data set: cell-based. The following applies: 30 min compound, stimulated with 0.1 μM Lys-[Des-Arg9]Bradykinin and 0.1 μM Sar-[D-Phe8]-des-Arg9-Bradykinin for 5 hours. The source says:
(§1) Inhibitory activity on Bradykinin B1 agonist-induced secretion of IL-6 and IL-8 in human IMR-90 cells
(§2) The effect of the compound examples on secretion of the cytokine IL-6 and IL-8 has been investigated in the human foetal lung fibroblast IMR-90 cell line. Here the induction of the cytokine secretion was induced by the Bradykinin B1 agonists Lys-[Des-Arg9]Bradykinin (CAS 71800-36-7, Tocris Bioscience) and Sar-[D-Phe8]-des-Arg9-Bradykinin (CAS 126959-88-4, Tocris Bioscience) leading to the activation of the Bradykinin B1-driven signalling pathway. This effect is indicative for a strong anti-inflammatory mode of action in kinin driven inflammation.
(§3) IMR-90 cells were cultured in Eagle's Minimum Essential Medium (EMEM) containing 2 mM L-glutamine, 1 g/L glucose, 1.5 g/L NaHCO3, 1 mM sodium pyruvate and non-essential amino acids (ATCC, 30-2003™) supplemented with 10% FBS (Biochrom, S0615) and 50 U/mL Penicillin, 50 μg/mL Streptomycin (PAA, P11-010). The assay was performed in EMEM and a cell density of […] IMR-90 cells/96-well. The compound examples have been serial diluted in 100% DMSO and evaluated at 8 different concentrations within the range of 3 nM and 10 μM and a final DMSO concentration of 0.4%. The IMR-90 cells have been incubated with the respective concentration of the compound for 30 min. The enhanced secretion of IL-6 and IL-8 was induced by the stimulation of these cells with 0.1 μM Lys-[Des-Arg9]Bradykinin (Tocris, catalogue no. 3225) and 0.1 μM Sar-[D-Phe8]-des-Arg9-Bradykinin (Tocris, catalogue no. 3230) for 5 hours at 37° C. and 5% C02. Further, cells have been treated with Lys-[Des-Arg9]Bradykinin and Sar-[D-Phe8]-des-Arg9-Bradykinin as neutral control and with 0.1% DMSO as inhibitor control. The amount of IL-6 and IL-8 in the supernatant was determined using the Human Prolnflammatory Panel II (4-Plex) (MSD, K15025B) according to manufacturer's instruction. Briefly, supernatants were added onto assay plates and incubated at room temperature for 1-2 h with vigorous shaking at 600 rpm. Detection antibodies were then added onto the supernatants and incubated at room temperature for an additional 1-2 h with vigorous shaking at 600 rpm. Plates were washed three times with phosphate-buffered saline (PBS; 137 mM NaCl, 2.7 mM KCl, 6.5 mM Na2HPO4, 1.7 mM KH2P04) containing 0.05% Tween-20 (Bio-Rad, 161-0781) and electrochemiluminescence detected using the MSD Sector Imager 6000 plate reader. The cell viability was measured using the CellTiter-Glo Luminescent Assay (Promega, G7571) following the manufacturers protocol. Briefly, the CellTiter-Glo Reagent was diluted with PBS (1:1) and added directly to cells. After incubation and shaking for 10 minutes luminescent signal was measured which is proportional to the amount of ATP present.
(§4) The effect of the compound on the amount of secreted cytokine has been calculated as 100/(measured cytokine concentration of neutral control-measured cytokine concentration of inhibitor control)*(measured cytokine concentration of compound dose-measured cytokine concentration of inhibitor control). IC50 values are determined using 4-parameter-fit.
(§5) The compound examples were tested in triplicates per plate and the inhibitory activity was determined as the relation between neutral and inhibitor control in percent. IC50 values were calculated using the 4-parameter logistic model.

In data set [2] the target is T1, human Bradykinin B1 receptor (Homo sapiens, UniProt P46663).
T1 construct: host or cells: CHO-K1
T1 sequence (P46663 1-353): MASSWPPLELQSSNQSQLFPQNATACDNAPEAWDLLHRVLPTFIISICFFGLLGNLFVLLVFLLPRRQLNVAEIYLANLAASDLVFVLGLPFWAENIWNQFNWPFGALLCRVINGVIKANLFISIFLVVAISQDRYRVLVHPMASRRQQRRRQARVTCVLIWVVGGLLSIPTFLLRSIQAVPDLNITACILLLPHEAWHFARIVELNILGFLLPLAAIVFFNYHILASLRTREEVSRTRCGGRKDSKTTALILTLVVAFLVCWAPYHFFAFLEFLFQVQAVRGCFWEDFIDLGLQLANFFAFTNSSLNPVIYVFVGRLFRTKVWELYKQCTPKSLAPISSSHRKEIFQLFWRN
Put plainly: Calcium flux Assay (FLIPR) with recombinant CHO-K1 cells expressing human Bradykinin B1 receptor, in presence (hB1 IC50) or absence (hB1 free IC50) of 0.1% BSA. Type of data set: cell-based. The following applies: in absence of 0.1% BSA, read-out: hB1 free IC50.

Data set [3] concerns IL-8 secretion. The data set is described as follows: Inhibitory activity on Bradykinin B1 agonist-induced secretion of IL-8 in human IMR-90 cells. The following applies: 30 min compound, stimulated with 0.1 μM Lys-[Des-Arg9]Bradykinin and 0.1 μM Sar-[D-Phe8]-des-Arg9-Bradykinin for 5 hours. Type of data set: cell-based.
Source text: as §1, §2, §3, §4, §5

The conditions of data set [4]: due to metabolic tability; cited from earlier work.
The conditions of data set [5]: cited from earlier work.
The conditions of data set [6]: cited from earlier work. This is another data set of the same source.
For data set [7] the following is noted: cited from earlier work. This is another data set of the same source.

A word on the pIC50: it is −log10 of the IC50, conventionally taken in molar units. Take `O=C(Nc1ccc(-n2ccc(CC(F)(F)F)n2)c(-c2nnn[nH]2)c1)C1(c2ccc(C(F)(F)F)cc2F)CC1` [Example 389, 1-[2-fluoro-4-(trifluoromethyl)phenyl]-N-{3-(1H-tetrazol-5-yl)-4-[3-(2,2,2-trifluoroethyl)-1H-pyrazol-1-yl]phenyl}cyclo-propanecarboxa-mide]: the pIC50 in data set [1] was 6.60; in data set [2] it was 7.96; in data set [3], 6.59.

Regarding `C[C@@H](NC(=O)C1(NC(=O)C(F)(F)F)CC1)c1ccc(-c2cccc(Cl)c2C(=O)O)cc1F` [MK-0686], in data set [4], the pharmacokinetic profile result is reported as “suboptimal”.

Turning to `CC(C)(C)c1ccn(-c2ccc(NC(=O)C3(c4ccc(C(F)(F)F)cc4F)CC3)cc2-c2nnn[nH]2)n1` [Example 380, N-[4-(3-tert-Butyl-1H-pyrazol-1-yl)-3-(1H-tetrazol-5-yl)phenyl]-1-[2-fluoro-4-(trifluoromethyl)phenyl]cyclopro-panecarboxamide], the figures for the pIC50 in data set [1], in data set [2] and in data set [3] were less than 5.00, 7.51 and 6.46, respectively.

Turning to `C[C@@H]1CC[C@H](C)N1C(=O)c1ccc([C@@H](C)NC(=O)C2(NC(=O)c3cc(F)cc(C(F)(F)F)c3)CC2)c(F)c1`, in data set [5], the aqueous solubility entry is recorded as “reasonable”. Moreover, in data set [6], the human metabolic stability entry is given as “poor”. For the same compound, the “pharmacokinetic profile in rat” value in data set [7] was “reasonable”.
